Laboratory results published in ChEMBL document CHEMBL5252596, “Synthesis and Cytotoxicity Evaluation of Betulin Cycloolefin Derivatives by Ruthenium-Catalyzed Ring-Closing Metathesis” (J Nat Prod, 2023).

Columns and labels:
HeLa [1] = assay: Induction of apoptosis in human HeLa cells assessed as necrotic cells at 10 uM incubated for 24 hrs by Annexin V-PE staining based flow cytometry analysis (reference value: 0.00%); type: functional
HeLa [2] = assay: Antiproliferative activity against human HeLa cells assessed as cell growth inhibition at 10 uM incubated for 24 hrs by CCK-8 assay relative to control; type: functional; set-up: scale not given: the % may be the effect or the level left
[3] = Cytotoxicity against mouse L929 cells assessed as cell growth inhibition at 10 uM incubated for 24 hrs by CCK-8 assay relative to control; type: toxicity, cell-based; details: read-out: Activity
HeLa [4] = assay: Induction of apoptosis in human HeLa cells assessed as late apoptotic cells at 10 uM incubated for 24 hrs by Annexin V-PE staining based flow cytometry analysis (reference value: 0.02%); type: functional
HeLa [5] = assay: Antiproliferative activity against human HeLa cells assessed as reduction in live cells at 10 uM incubated for 24 hrs by calcein-AM/PI staining based fluorescence microscopic analysis relative to control (reference value: 3.78%); type: functional; set-up: scale not given: the % may be the effect or the level left
L929 [6] = assay: Cytotoxicity against mouse L929 cells assessed as reduction in live cells at 10 uM incubated for 24 hrs by calcein-AM/PI staining based fluorescence microscopic analysis relative to control (reference value: 8.65%); type: toxicity, cell-based; set-up: scale not given: the % may be the effect or the level left; details: l929, 24 h
L929 [7] = assay: Induction of apoptosis in mouse L929 cells assessed as early apoptotic cells at 10 uM incubated for 24 hrs by Annexin V-PE staining based flow cytometry analysis (reference value: 1.47%); type: functional
HeLa [8] = assay: Induction of apoptosis in human HeLa cells assessed as viable cells at 10 uM incubated for 24 hrs by Annexin V-PE staining based flow cytometry analysis (reference value: 97.43%); type: functional; details: read-out: Activity
L929 [9] = assay: Cytotoxicity against mouse L929 cells assessed as reduction in dead cells at 10 uM incubated for 24 hrs by calcein-AM/PI staining based fluorescence microscopic analysis relative to control (reference value: 0.38%); type: toxicity, cell-based; set-up: scale not given: the % may be the effect or the level left; details: l929, 24 h
HeLa [10] = assay: Induction of apoptosis in human HeLa cells assessed as early apoptotic cells at 10 uM incubated for 24 hrs by Annexin V-PE staining based flow cytometry analysis (reference value: 2.55%); type: functional
L929 [11] = assay: Induction of apoptosis in mouse L929 cells assessed as late apoptotic cells at 10 uM incubated for 24 hrs by Annexin V-PE staining based flow cytometry analysis (reference value: 0.53%); type: functional
L929 [12] = assay: Induction of apoptosis in mouse L929 cells assessed as necrotic cells at 10 uM incubated for 24 hrs by Annexin V-PE staining based flow cytometry analysis (reference value: 0.00%); type: functional
HeLa [13] = assay: Antiproliferative activity against human HeLa cells assessed as reduction in dead cells at 10 uM incubated for 24 hrs by calcein-AM/PI staining based fluorescence microscopic analysis relative to control (reference value: 0.15%); type: functional; set-up: scale not given: the % may be the effect or the level left
L929 [14] = assay: Induction of apoptosis in mouse L929 cells assessed as viable cells at 10 uM incubated for 24 hrs by Annexin V-PE staining based flow cytometry analysis (reference value: 98%); type: functional; details: read-out: Activity

Question: With `C=C(C)[C@@H]1CC[C@]2(CO)CC[C@]3(C)[C@H](CC[C@@H]4[C@@]5(C)CC[C@H](O)C(C)(C)[C@@H]5CC[C@]43C)[C@@H]12` [BETULIN] as the compound, how does the Activity (HeLa [1]) read?
Answer: 0%

Question: And the Activity (HeLa [2])?
Answer: 58%

Question: What about the inhibition at 24 h, 10 µM [3] of the same compound?
Answer: 55%

Question: What about the Activity (HeLa [4]) of the same compound?
Answer: 0.03%

Question: What about the Activity (HeLa [5]) of the same compound?
Answer: 2.8%

Question: What about the Activity (L929 [6]) of the same compound?
Answer: 5.19%

Question: And the Activity (L929 [7])?
Answer: 2.94%

Question: What about the viability at 10 µM (HeLa [8]) of the same compound?
Answer: 87.8%

Question: And the Activity (L929 [9])?
Answer: 0.79%

Question: And the Activity (HeLa [10])?
Answer: 12.16%

Question: What about the Activity (L929 [11]) of the same compound?
Answer: 0.61%

Question: And the Activity (L929 [12])?
Answer: 0%

Question: And the Activity (HeLa [13])?
Answer: 0.53%

Question: What about the viability at 10 µM (L929 [14]) of the same compound?
Answer: 96.5%

Question: For `C=CCCC(=O)OC[C@]12CC[C@@H](C(=C)C)[C@@H]1[C@H]1CC[C@@H]3[C@@]4(C)CC[C@H](O)C(C)(C)[C@@H]4CC[C@@]3(C)[C@]1(C)CC2`, which Activity (HeLa [1]) is on record?
Answer: 0.53%

Question: What about the Activity (HeLa [2]) of the same compound?
Answer: 37%

Question: What about the inhibition at 24 h, 10 µM [3] of the same compound?
Answer: 29%

Question: What about the Activity (HeLa [4]) of the same compound?
Answer: 30.3%

Question: And the Activity (HeLa [5])?
Answer: 1.4%

Question: What about the Activity (L929 [6]) of the same compound?
Answer: 2.15%

Question: And the Activity (L929 [7])?
Answer: 9.38%

Question: And the viability at 10 µM (HeLa [8])?
Answer: 58.2%

Question: And the Activity (L929 [9])?
Answer: 2.83%

Question: And the Activity (HeLa [10])?
Answer: 10.95%

Question: And the Activity (L929 [11])?
Answer: 5.86%

Question: And the Activity (L929 [12])?
Answer: 0%

Question: And the Activity (HeLa [13])?
Answer: 1.02%

Question: What about the viability at 10 µM (L929 [14]) of the same compound?
Answer: 84.8%

Question: For `C/C1=C/CCCCCCCCC(=O)OC[C@]23CC[C@@H]1[C@@H]2[C@H]1CC[C@@H]2[C@@]4(C)CC[C@H](O)C(C)(C)[C@@H]4CC[C@@]2(C)[C@]1(C)CC3`, which Activity (HeLa [1]) is on record?
Answer: 0.61%

Question: What about the Activity (HeLa [4]) of the same compound?
Answer: 26.22%

Question: And the Activity (HeLa [5])?
Answer: 1.29%

Question: And the Activity (L929 [6])?
Answer: 3.67%

Question: What about the Activity (L929 [7]) of the same compound?
Answer: 12.6%

Question: And the viability at 10 µM (HeLa [8])?
Answer: 70.5%

Question: And the Activity (L929 [9])?
Answer: 2.1%

Question: And the Activity (HeLa [10])?
Answer: 2.66%

Question: What about the Activity (L929 [11]) of the same compound?
Answer: 5.04%

Question: What about the Activity (L929 [12]) of the same compound?
Answer: 5.18%

Question: And the Activity (HeLa [13])?
Answer: 0.91%

Question: What about the viability at 10 µM (L929 [14]) of the same compound?
Answer: 77.2%

Question: Which results are given for `C=CCCCCCCCCC(=O)OC[C@]12CC[C@@H](C(=C)C)[C@@H]1[C@H]1CC[C@@H]3[C@@]4(C)CC[C@H](O)C(C)(C)[C@@H]4CC[C@@]3(C)[C@]1(C)CC2`?
Answer: Activity (HeLa [1]): 1.41%; Activity (HeLa [2]): 55%; inhibition at 24 h, 10 µM [3]: 47%; Activity (HeLa [4]): 18.58%; Activity (HeLa [5]): 2.03%; Activity (L929 [6]): 4.65%; Activity (L929 [7]): 0.75%; viability at 10 µM (HeLa [8]): 79%; Activity (L929 [9]): 1.77%; Activity (HeLa [10]): 0.98%; Activity (L929 [11]): 4.55%; Activity (L929 [12]): 1.29%; Activity (HeLa [13]): 0.69%; viability at 10 µM (L929 [14]): 82%

Question: For `C/C1=C/CCC(=O)OC[C@]23CC[C@@H]1[C@@H]2[C@H]1CC[C@@H]2[C@@]4(C)CC[C@H](O)C(C)(C)[C@@H]4CC[C@@]2(C)[C@]1(C)CC3`, which Activity (HeLa [1]) is on record?
Answer: 0.65%

Question: And the Activity (HeLa [4])?
Answer: 62.84%

Question: And the Activity (HeLa [5])?
Answer: 0.46%

Question: And the Activity (L929 [6])?
Answer: 1.71%

Question: And the Activity (L929 [7])?
Answer: 0.12%

Question: And the viability at 10 µM (HeLa [8])?
Answer: 31.4%

Question: And the Activity (L929 [9])?
Answer: 5.76%

Question: What about the Activity (HeLa [10]) of the same compound?
Answer: 5.09%

Question: And the Activity (L929 [11])?
Answer: 72.6%

Question: And the Activity (L929 [12])?
Answer: 21.59%

Question: And the Activity (HeLa [13])?
Answer: 1.78%

Question: What about the viability at 10 µM (L929 [14]) of the same compound?
Answer: 5.69%
